US20250177473A1, “PEPTIDE REGULATORS OF METABOLISM” (Metabico, Inc., priority 2022, published 2025)
No end group written: not given here.

Legend:
[1] = test system: M67 (Stat1/Stat3) luciferase reporter; assay: M67 (Stat1/Stat3) luciferase reporter in HepG2 cells; format: cell-based, human; settings: 16 hours; for Stat3 (M67) reporter activity with three PPAR antagonists: GW 6471 + T0070907 + GSK3787 applied together with EPSI 0.05 mg/mL; for effect of co-applied inhibitor/antagonist on EPSI-induced M67 reporter activation: EPSI 0.05 mg/mL + inhibitor (pravastatin 10 μM; SC144; NF 449)
Procedure: Luciferase reporters used in the study: • M67 luciferase reporter.
The use of Stat1 inhibitor is required to distinguish the effects of Stat1 and Stat3.
HepG2 cells were electroporated with 10 μg of purified plasmid DNA and 0.1 μg of pRL-CMV Renilla luciferase control reporter vector (Promega, Madison, WI, USA) using the Neon Transfection System (Thermo Fisher Scientific, Waltham, MA, USA) and the following regimens: three 20 ms 1230 V pulses.
Luciferase activity was measured in Luminometer 20/20n (TurnerBioSystems, Sunnwale, USA) using Dual-Luciferase Reporter Assay System (Promega, Madison, USA) following the manufacturer's protocol.
DY 268 (Tocris Cat. No. 5656) • PPAR-alpha: GW 6471 (Tocris, Cat. No. 4618) • PPAR-gamma: T0070907 (Selleck Chemicals, Catalog No. S2871) • PPAR-delta: GSK3787 (Selleck Chemicals, Catalog No. S8025) • LEPR.
HepG2 cells were electroporated with 10 μg of purified plasmid DNA of M67 reporter and 0.1 μg of pRL-CMV Renilla luciferase control reporter vector (Promega, Madison, WI, USA) using the Neon Transfection System (Thermo Fisher Scientific, Waltham, MA, USA) and the following regimens: three 20 ms 1230 V pulses.
Detection of luciferase signals was performed 16 hours after the compounds' application. Luciferase activity was measured in Luminometer 20/20n (TurnerBioSystems, Sunnwale, USA) using Dual-Luciferase Reporter Assay System (Promega, Madison, USA) following the manufacturer's protocol.

[2] = test system: primary mouse fibroblasts; assay: Cell confluence of fibroblasts (cytotoxic effect); format: cell-based; settings: 2.5 mg/ml (highest dose), 24 hours
Procedure: The study was carried out in primary mouse fibroblasts. Isolation of fibroblasts was carried out with techniques described earlier (See Example 1). Fibroblasts were incubated with […] (SEQ ID NO: 1) peptide at different concentrations (0.005 mg/ml; 0.05 mg/ml; 0.5 mg/ml; 2.5 mg/ml) for 24 hours. Each treatment group was represented in two biological replicates.

IRS2 gene expression = assay: IRS2 and metabolic gene mRNA expression (real-time PCR) in primary mouse fibroblasts; format: cell-based; settings: 24 hours
Procedure: The study was carried out in primary mouse fibroblasts. Fibroblasts were isolated from skin tissues of twenty C57BL/6 mice in accordance with the standard protocol (Seluanov (2010). Establishing primary adult fibroblast cultures from rodents. JoVE. 44). Fibroblasts were cultured in a complete DMEM/F12 medium containing 15% FBS for two days, after which they were incubated with individual peptides for 24 hours. The dose of each peptide was 0.5 mg/ml. The experiment was carried out in 2 biological replicates.
The isolation of total RNA from cells was performed using the “ExtractRNA” reagent (Evrogen, Russia) analog of Trizol, according to the manufacturer's protocol. The quality of the isolated total RNA was assessed by measuring the concentration of RNA and the ratio of optical absorption at wavelengths of 260 nm and 280 nm. […]
Real-time PCR was performed using commercially available kit qPCR mix-HS-SYBR+Low Rox (Evrogen, Russia) and 7500 real-time PCR System (Applied Biosystems). […] We analyzed expression levels of TSC1, TSC2, pS6K1, pAKT, IRS2, SREBP-1, Stat3 genes. […]
Isolation of mRNA, synthesis of the first strand of cDNA, and RT-PCR were performed with techniques described earlier (See Example 1). Expression levels of IRS2, TNF-α, IL-6, and GSK3p (WNT-pathway) were analyzed. […]

TNF-α = TNF-α mRNA expression in LPS-induced primary mouse fibroblasts; format: cell-based; settings: peptide 100 μM + LPS 0.5 μg/mL, 24 hours
Procedure: (§1) The study was carried out in primary mouse fibroblasts. Isolation of fibroblasts was carried out with techniques described earlier (See Example 1). Fibroblasts were cultured for 3 days. The following stressors were applied separately: bacterial lipopolysaccharides (LPS), high glucose in the incubation medium, and serum-free incubation medium.
(§2) LPS is a major outer surface membrane component that induces an inflammatory response in cells.
(§3) Isolation of mRNA, synthesis of the first strand of cDNA, and RT-PCR were performed with techniques described earlier (See Example 1). Expression levels of IRS2, TNF-α, IL-6, and GSK3p (WNT-pathway) were analyzed.
(§4) The study was carried out in primary mouse fibroblasts. Isolation of fibroblasts was carried out with techniques described earlier (See Example 1). Incubation of fibroblasts with 100 μM individual peptides and 0.5 μg/mL LPS was carried out for 24 hours. Each treatment group was represented in two biological replicates.
(§5) Isolation of mRNA, synthesis of the first strand of cDNA, and RT-PCR were performed with techniques described earlier (See Example 1). Expression levels of RPL27, TNF-α, IL-6, and IRS2 genes were analyzed.

IL-6 = IL-6 mRNA expression in LPS-induced primary mouse fibroblasts; format: cell-based; settings: peptide 100 μM + LPS 0.5 μg/mL, 24 hours
Procedure: as §1, §2, §3, §4, §5

HepG2 cells = assay: HepG2 cell death on incubation with antagonist; format: cell-based, human; settings: co-incubation with EPSI 0.05 mg/mL in M67 reporter experiment
Procedure: • HepG2 human hepatocyte carcinoma cell line (HB-8065, ATCC, USA). • HepG2 cells were cultured in a complete DMEM medium containing 15% FBS.
Transfected HepG2 cells were co-incubated with EPSI peptide (0.05 mg/mL) and antagonists of the selected receptors.

## O=C(Nc1ccncc1)c1cc([N+](=O)[O-])ccc1Cl [T0070907]
[1]
  Stat3 (M67) reporter activity with three PPAR antagonists: significant induction

## O=C(NNc1nc2cc(F)ccc2n2cccc12)c1cnccn1 [SC144]
[1]
  effect of co-applied inhibitor/antagonist on EPSI-induced M67 reporter activation: partially inversed

## CCC(=O)NC[C@H](Cc1ccc(OCCc2nc(-c3ccccc3)oc2C)cc1)N/C(C)=C\C(=O)c1ccc(C(F)(F)F)cc1 [GW 6471]
[1]
  Stat3 (M67) reporter activity with three PPAR antagonists: significant induction

## DLSKEPSISRE
[2]
  cytotoxic effect (confluence of the cells): absence of cytotoxic effect

## O=C(NCCS(=O)(=O)c1ccc(C(F)(F)F)cn1)c1ccc(Cl)cc1 [GSK3787]
[1]
  Stat3 (M67) reporter activity with three PPAR antagonists: significant induction

## SKEPSIS (Synthetic polymer)
IRS2 gene expression; peptide 100 μM + LPS 0.5 μg/mL
  IRS2 expression during LPS-induced inflammatory response: induced
IRS2 gene expression; pharmacophore screen, peptides 100 μM
  IRS2 gene expression levels: induce IRS2 gene expression levels
TNF-α
  LPS-evoked levels of TNF-α expression: reducing LPS-evoked levels
IL-6
  LPS-evoked levels of IL-6 expression: reducing LPS-evoked levels

## O=C(Nc1cc(C(=O)Nc2ccc(S(=O)(=O)O)cc2S(=O)(=O)O)cc(C(=O)Nc2ccc(S(=O)(=O)O)cc2S(=O)(=O)O)c1)Nc1cc(C(=O)Nc2ccc(S(=O)(=O)O)cc2S(=O)(=O)O)cc(C(=O)Nc2ccc(S(=O)(=O)O)cc2S(=O)(=O)O)c1 [NF 449]
[1]
  effect of co-applied inhibitor/antagonist on EPSI-induced M67 reporter activation: partially inversed

## COc1cc(OC)cc(N(CCNC(C)C)c2ccc3ncc(-c4cnn(C)c4)nc3c2)c1 [Erdafitinib]
HepG2 cells
  HepG2 cell death: total cell death
